Among the data in patent US20230416227A1, “PLASMA KALLIKREIN INHIBITORS” (Merck Sharp & Dohme LLC, priority 2020, published 2023) are IC50 values, retold here.

T1 sequence (P03952 391-638 limits assumed): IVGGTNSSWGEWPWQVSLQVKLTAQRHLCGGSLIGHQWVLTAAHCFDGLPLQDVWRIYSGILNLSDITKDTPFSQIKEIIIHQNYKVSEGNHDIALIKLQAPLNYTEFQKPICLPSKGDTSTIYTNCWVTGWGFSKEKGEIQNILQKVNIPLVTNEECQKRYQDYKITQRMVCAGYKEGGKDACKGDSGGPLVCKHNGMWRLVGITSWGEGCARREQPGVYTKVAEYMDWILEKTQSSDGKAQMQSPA
T1 sequence (P03952 20-390 partner limits assumed): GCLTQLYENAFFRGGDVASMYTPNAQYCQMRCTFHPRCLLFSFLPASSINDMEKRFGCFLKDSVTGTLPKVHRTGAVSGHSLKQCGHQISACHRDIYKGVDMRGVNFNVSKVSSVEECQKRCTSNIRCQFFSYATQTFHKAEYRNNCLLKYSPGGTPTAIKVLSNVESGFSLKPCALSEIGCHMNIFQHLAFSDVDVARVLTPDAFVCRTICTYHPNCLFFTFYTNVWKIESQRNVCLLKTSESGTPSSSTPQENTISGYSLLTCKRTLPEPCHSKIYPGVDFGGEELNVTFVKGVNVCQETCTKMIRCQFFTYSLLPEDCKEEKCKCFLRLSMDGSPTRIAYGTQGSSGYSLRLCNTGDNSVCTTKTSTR

This assay addresses T1, Human plasma kallikrein (Homo sapiens, UniProt P03952).
T1 construct: yields a heavy chain (371 amino acids) and a light chain (248 amino acids); purchased Enzyme Research Laboratories
In words: Plasma Kallikrein Assay. It is filed as biochemical. As to conditions: purified Human plasma kallikrein 0.5 nM, substrate Acetyl-K-P-R-AFC, pH 7.4.
With `O=C(Nc1cnn(Cc2ccc(N3CC4CCC(C3)N4)nc2)c1)c1cncc(-c2c(C(F)F)ccc(Cl)c2F)n1` [Example 204, N-(1-((6-(3,8-Diazabicyclo[3.2.1]octan-3-yl)pyridin-3-yl)methyl)-1H-pyrazol-4-yl)-6-(3-chloro-6-(difluoromethyl)-2-fluorophenvl)pyrazine-2-carboxamide], half-maximal inhibition (IC50) was put at 17.5 nM.
For the compound `CN(C)C(=O)[C@@H]1CCCN1c1ccc(Cn2cc(NC(=O)c3cncc(-c4c(C(F)F)ccc(Cl)c4F)n3)cn2)cn1` [Example 125, (S)-6-(3-Chloro-6-(difluoromethyl)-2-fluorophenyl)-N-(1-((6-(2-(dimethylcarbamoyl)pyrrolidin-1-yl)pyridin-3-yl)methyl)-1H-pyrazol-4-yl)pyrazine-2-carboxamide], the IC50 – broadly, the concentration at which inhibition is half-maximal – amounted to 28.3 nM.
The figure for `O=C(Nc1cnn(Cc2cnc(N3CC4C(C3)C4(F)F)nc2)c1)c1cncc(-c2c(C(F)F)ccc(Cl)c2F)n1` (centres unmarked) [Example 90, 6-(3-Chloro-6-(difluoromethyl)-2-fluorophenyl)-N-(1-((2-(6,6-difluoro-3-azabicyclo[3.1.0]hexan-3-yl)pyrimidin-5-yl)methyl)-1H-pyrazol-4-yl)pyrazine-2-carboxamide] is 17.8 nM; for `CC(c1cnc(N2CC[C@H]2[C@@H](C)N2CC[C@H](O)C2)nc1)n1cc(NC(=O)c2cncc(-c3c(C(F)F)ccc(Cl)c3F)n2)cn1` (stereo partly drawn) [Example 186, 6-(3-Chloro-6-(difluoromethyl)-2-fluorophenyl)-N-(1-(1-(2-((S)-2-((R)-1-((S)-3-hydroxypyrrolidin-1-yl)ethyl)azetidin-1-yl)pyrimidin-5-yl)ethyl)-1H-pyrazol-4-yl)pyrazine-2-carboxamide] it is 1.4 nM.
In the case of `C[C@@H](c1cnc(N2C[C@@H]3C[C@@H]3[C@@H]2CO)nc1)n1cc(NC(=O)c2cncc(-c3c(C(F)F)ccc(Cl)c3F)n2)cn1` (single isomer, unassigned) [Example 86, 6-(3-Chloro-6-(difluoromethyl)-2-fluorophenyl)-N-(1-((S or R)-1-(2-((1S,2R,5R or 1R,2S,5S)-2-(hydroxymethyl)-3-azabicyclo[3.1.0]hexan-3-yl)pyrimidin-5-yl)ethyl)-1H-pyrazol-4-yl)pyrazine-2-carboxamide] it was 13.3 nM; in that of `CC(c1cnc(N(C)CC(=O)N(C)C)nc1)n1cc(NC(=O)c2cncc(-c3c(C(F)F)ccc(Cl)c3F)n2)cn1` (centres unmarked) [Example 72, 6-(3-Chloro-6-(difluoromethyl)-2-fluorophenyl)-N-(1-(1-(2-((2-(dimethylamino)-2-oxoethyl)(methyl)amino)pyrimidin-5-yl)ethyl)-1H-pyrazol-4-yl)pyrazine-2-carboxamide], 2.5 nM; in that of `CC(c1cnc(N2CC[C@H]2[C@@H](C)N2CC(C)(O)C2)nc1)n1cc(NC(=O)c2cncc(-c3c(C(F)F)ccc(Cl)c3F)n2)cn1` (stereo partly drawn) [Example 190, 6-(3-Chloro-6-(difluoromethyl)-2-fluorophenyl)-N-(1-(1-(2-((S)-2-((R)-1-(3-hydroxy-3-methylazetidin-1-yl)ethyl)azetidin-1-yl)pyrimidin-5-yl)ethyl)-1H-pyrazol-4-yl)pyrazine-2-carboxamide], 3.5 nM.
Compound `O=C(Nc1cnn(Cc2cnc(N3CCCC3Cn3ccnc3)nc2)c1)c1cncc(-c2c(C(F)F)ccc(Cl)c2F)n1` (centres unmarked) [Example 109, N-(1-((2-(2-((1H-Imidazol-1-yl)methyl)pyrrolidin-1-yl)pyrimidin-5-yl)methyl)-1H-pyrazol-4-yl)-6-(3-chloro-6-(difluoromethyl)-2-fluorophenyl)pyrazine-2-carboxamide] gave an IC50 of 45.9 nM.
In the case of `O=C(Nc1cnn(Cc2cnc(N3CCC4OCCC43)nc2)c1)c1cncc(-c2c(C(F)F)ccc(Cl)c2F)n1` (centres unmarked) [Example 75, 6-(3-Chloro-6-(difluoromethyl)-2-fluorophenyl)-N-(1-((2-(hexahydro-4H-furo[3,2-b]pyrrol-4-yl)pyrimidin-5-yl)methyl)-1H-pyrazol-4-yl)pyrazine-2-carboxamide] it was 5 nM; in that of `O=C(Nc1cnn(Cc2cnc(N3CCCC3CO)nc2)c1)c1cncc(-c2c(C(F)F)ccc(Cl)c2F)n1` (centres unmarked) [Example 113, 6-(3-Chloro-6-(difluoromethyl)-2-fluorophenyl)-N-(1-((2-(2-(hydroxymethyl)pyrrolidin-1-yl)pyrimidin-5-yl)methyl)-1H-pyrazol-4-yl)pyrazine-2-carboxamide], 65.1 nM; in that of `O=C(Nc1cnn(Cc2cnc(N3CCCC3CN3C[C@H](F)[C@@H](F)C3)nc2)c1)c1cncc(-c2c(C(F)F)ccc(Cl)c2F)n1` (stereo partly drawn) [Example 158, 6-(3-Chloro-6-(difluoromethyl)-2-fluorophenyl)-N-(1-((2-(2-(((35,4S)-3,4-difluoropyrrolidin-1-yl)methyl)pyrrolidin-1-yl)pyrimidin-5-yl)methyl)-1H-pyrazol-4-yl)pyrazine-2-carboxamide], 9.5 nM.
The figure for `O=C(Nc1cnn(Cc2cnc(N3CCCC3CNCC(F)F)nc2)c1)c1cncc(-c2c(C(F)F)ccc(Cl)c2F)n1` (centres unmarked) [Example 157, 6-(3-Chloro-6-(difluoromethyl)-2-fluorophenyl)-N-(1-((2-(2-(((2,2-difluoroethyl)amino)methyl)pyrrolidin-1-yl)pyrimidin-5-yl)methyl)-1H-pyrazol-4-yl)pyrazine-2-carboxamide] is 9.3 nM; for `CN(CCN1CCCC1)c1ccc(Cn2cc(NC(=O)c3cncc(-c4c(C(F)F)ccc(Cl)c4F)n3)cn2)cn1` [Example 114, 6-(3-Chloro-6-(difluoromethyl)-2-fluorophenyl)-N-(1-((6-(methyl(2-(pyrrolidin-1-yl)ethyl)amino)pyridin-3-yl)methyl)-1H-pyrazol-4-yl)pyrazine-2-carboxamide] it is 2.7 nM.
In the case of `CC(c1cnc(N2Cc3cncnc3C2)nc1)n1cc(NC(=O)c2cncc(-c3c(C(F)F)ccc(Cl)c3F)n2)cn1` (centres unmarked) [Example 78, 6-(3-Chloro-6-(difluoromethyl)-2-fluorophenyl)-N-(1-(1-(2-(5,7-dihydro-6H-pyrrolo[3,4-d]pyrimidin-6-yl)pyrimidin-5-yl)ethyl)-1H-pyrazol-4-yl)pyrazine-2-carboxamide], the IC50 was found to be 5.6 nM.
The figure for `CC1CCN1c1ncc(C(C)n2cc(NC(=O)c3cncc(-c4c(C(F)F)ccc(Cl)c4F)n3)cn2)cn1` (racemic) [Example 100, 6-(3-Chloro-6-(difluoromethyl)-2-fluorophenyl)-N-(1-((R and S)-1-(2-((R and S)-2-methylazetidin-1-yl)pyrimidin-5-yl)ethyl)-1H-pyrazol-4-yl)pyrazine-2-carboxamide] is 20.6 nM; for `CC(N)C1CCCN1c1ncc(Cn2cc(NC(=O)c3cncc(-c4c(C(F)F)ccc(Cl)c4F)n3)cn2)cn1` (single isomer, unassigned) [Example 156, N-(1-((2-(2-(1-Aminoethyl)pyrrolidin-1-yl)pyrimidin-5-yl)methyl)-1H-pyrazol-4-yl)-6-(3-chloro-6-(difluoromethyl)-2-fluorophenyl)pyrazine-2-carboxamide] it is 7.3 nM; for `O=C(Nc1cnn(Cc2ccc(N3CCCC3CCO)nc2)c1)c1cncc(-c2c(C(F)F)ccc(Cl)c2F)n1` (centres unmarked) [Example 115, 6-(3-Chloro-6-(difluoromethyl)-2-fluorophenyl)-N-(1-((6-(2-(2-hydroxyethyl)pyrrolidin-1-yl)pyridin-3-yl)methyl)-1H-pyrazol-4-yl)pyrazine-2-carboxamide] it is 3.5 nM.
The figure for `CC(c1cnc(N2CC[C@H]2CN2CC[C@@H](O)C[C@@H]2C)nc1)n1cc(NC(=O)c2cncc(-c3c(C(F)F)ccc(Cl)c3F)n2)cn1` (stereo partly drawn) [Example 178, 6-(3-Chloro-6-(difluoromethyl)-2-fluorophenyl)-N-(1-(1-(2-((S)-2-(((2S,4R)-4-hydroxy-2-methylpiperidin-1-yl)methyl)azetidin-1-yl)pyrimidin-5-yl)ethyl)-1H-pyrazol-4-yl)pyrazine-2-carboxamide] is 3.3 nM; for `CC(c1cnc(N2CC[C@H]2CN2CC(C)(O)C2)nc1)n1cc(NC(=O)c2cncc(-c3c(C(F)F)ccc(Cl)c3F)n2)cn1` (stereo partly drawn) [Example 174, 6-(3-Chloro-6-(difluoromethyl)-2-fluorophenyl)-N-(1-(1-(2-((S)-2-((3-hydroxy-3-methylazetidin-1-yl)methyl)azetidin-1-yl)pyrimidin-5-yl)ethyl)-1H-pyrazol-4-yl)pyrazine-2-carboxamide] it is 2.3 nM; for `Nc1ncc(-c2c(C(F)F)ccc(Cl)c2F)nc1C(=O)Nc1cnn(Cc2cnc(N3CCC3)nc2)c1` [Example 3, 3-Amino-N-(1-((2-(azetidin-1-yl)pyrimidin-5-yl)methyl)-1H-pyrazol-4-yl)-6-(3-chloro-6-(difluoromethyl)-2-fluorophenyl)pyrazine-2-carboxamide] it is 40.5 nM.
In the case of `CC(c1cnc(N2CC[C@H]2CN2CC(F)C2)nc1)n1cc(NC(=O)c2cncc(-c3c(C(F)F)ccc(Cl)c3F)n2)cn1` (stereo partly drawn) [Example 171, 6-(3-Chloro-6-(difluoromethyl)-2-fluorophenyl)-N-(1-(1-(2-((S)-2-((3-fluoroazetidin-1-yl)methyl)azetidin-1-yl)pyrimidin-5-yl)ethyl)-1H-pyrazol-4-yl)pyrazine-2-carboxamide] it was 4.9 nM.
`Cn1cnc(C2CCCN2c2ccc(Cn3cc(NC(=O)c4cncc(-c5c(C(F)F)ccc(Cl)c5F)n4)cn3)cn2)n1` (centres unmarked) [Example 130, 6-(3-Chloro-6-(difluoromethyl)-2-fluorophenyl)-N-(1-((6-(2-(1-methyl-1H-1,2,4-triazol-3-yl)pyrrolidin-1-yl)pyridin-3-yl)methyl)-1H-pyrazol-4-yl)pyrazine-2-carboxamide] had an IC50 of 35 nM.
As for `O=C(Nc1cnn(C2CCc3nc(N4CCC4)ccc32)c1)c1cncc(-c2c(C(F)F)ccc(Cl)c2F)n1` (single isomer, unassigned) [Example 35, (S or R)-N-(1-(2-(azetidin-1-yl)-6,7-dihydro-5H-cyclopenta[b]pyridin-5-yl)-1H-pyrazol-4-yl)-6-(3-chloro-6-(difluoromethyl)-2-fluorophenyl)pyrazine-2-carboxamide], the IC50 came to 33.2 nM.
